Assay [1] deals with E. coli strain 25922. Kind of assay: MIC by broth microdilution, E. coli strain 25922. The assay is classed as cell-based. How it is done: (§1) Bacterial isolates were cultivated from −70° C. frozen stocks by two consecutive overnight passages at 35° C. in ambient air on 5% blood agar (Remel, Lenexa, Kans.). Quality control and P. aeruginosa ATCC 27853) is from the American Type Culture Collection (ATCC; Rockville, Md.) and PAO1 was received from Dr. K. Poole.
Minimal Inhibitory Concentrations (MICs) were determined by the broth microdilution method in accordance with Clinical and Laboratories Institute (CLSI) guidelines. In brief, fresh overnight bacterial cultures were suspended in sterile saline, and adjusted to a 0.5 McFarland turbidity standard. Bacterial suspensions were then diluted in cation adjusted Mueller-Hinton Broth (MHB II; BBL) to yield a final inoculum of approximately 5×10^5 colony-forming units (CFU)/mL. A master plate of antibiotics was prepared at a concentration equivalent to hundred-fold the highest desired final concentration in 100% dimethyl sulfoxide (DMSO). The master antibiotic plate was then diluted by serial twofold dilution with a multichannel pipette. The resulting dilution series of compounds were diluted 1:10 with sterile water leading to a 10% DMSO final concentration. A volume of 10 μL of the drug dilution series was transferred to 96-well assay plates. Assay plates were inoculated with 90 μL of bacterial suspensions and incubated at 35-37° C. for 20 hrs. The assay plates were read using a microtiter plate reader (Molecular Devices) at 600 nm as well as by visual observation with a reading mirror. The lowest concentration of the compound that prevented visible growth was recorded as the MIC. Performance of the assay was monitored by testing aztreonam against laboratory quality control strains in accordance with guidelines of the CLSI.
On the technique in general: In broth dilution the organism is exposed to a series of concentrations in liquid medium.

In assay [2] the test system is E. coli containing KPC-2. Kind of assay: MIC by broth microdilution, E. coli containing KPC-2 (Ec KPC2 Iso). The assay is classed as cell-based. The following applies: Escherichia coli, read-out: Ec KPC2 Iso (MIC), E. coli containing KPC-2 (carbapenemase from Klebsiella pneumoniae). How it is done: as §1
Strain NB27273 (BW25113 pspB::Km^r) was obtained from the Keio transposon insertion collection. The strain has the pspB gene replaced by a kanamycin resistance marker (BW25113 pspB::Km^r). This strain was cured of the transposon in pspB via FLP recombinase using published methodology. The resulting strain, BW25113 pspB, was used as a host for multicopy vectors expressing key β-lactamases. Multicopy plasmids directing constitutive expression of β-lactamases were established as follows: Synthetic, codon optimized genes encoding E. coli KPC2 and SHV12 β-lactamases were made by DNA2.0 (Palo Alto, Calif.). Each of the synthetic fragments were designed to contain NotI and NcoI restriction sites at their termini, allowing ligation into a NotI/NcoI digested pET28a(+) derivative for protein expression. […] The codon optimized nucleotide sequences and relevant primer recognition information is shown below:
The PCR products were then digested with XhoI and EcoRI and ligated into similarly digested plasmid pAH63-pstS(BlaP). Plasmid pAH63-pstS(BlaP) is a derivative of plasmid pAH63 (J Bacteriol: 183(21): 6384-6393) made by cloning the TEM-1 (bla) promoter and signal peptide encoding region from plasmid pBAD (J Bacteriol. 1995 July 177(14):4121-30) into plasmid pAH63. This fragment was PCR amplified from pBAD using primer pair E192 (ttca[…]) (SEQ ID NO:13) and E194 ([…]) (SEQ ID NO:14), digested with PstI and BamHI and inserted into similarly digested plasmid pAH63. Therefore, expression of β-lactamases from pAH63-pstS(BlaP) based constructs is constitutive and the signal sequence is provided to direct these proteins to the periplasm. Plasmid pAH63 based vectors are used for insertion into the genome in single copy, however, to provide higher expression levels to allow more sensitive detection of the susceptibility of compounds to the β-lactamases, the expression inserts contained in these vectors were moved to the replicative multicopy vector pBAD-Kan (J Bacteriol. 1995 July 177(14):4121-30). To accomplish this, the inserts encompassing the β-lactamase genes, with the associated TEM promoter and signal sequences, were PCR amplified from their corresponding vectors using primer E269 (ccg[…]) (SEQ ID NO:15) and E202 (aatc[…]) (SEQ ID NO:16) for the KPC2 construct and E204 (aatc[…]) (SEQ ID NO:17) for the SHV12 construct. These fragments were then digested with XbaI and EcoRI, and each was inserted into pBAD18-kan that had been digested with the same enzymes to generate a pair of multicopy vectors expressing KPC2 and SHV12 respectively. These vectors were transformed into BW25113 pspB to generate strains NB27273-CDY0033 (expressing KPC2) and NB27273-CDY0030 (expressing SHV12). The pBAD18-kan vector also contains the TEM promoter region and signal sequence, (but lacks any intact β-lactamase genes) and was transformed into BW25113 pspB using standard protocols to generate the control strain NB27273-CDY0026. Expression of the β-lactamases was confirmed by verifying decreased susceptibility to example test antibiotics that are known substrates of KPC2 or SHV12. Susceptibility Testing
Minimal Inhibitory Concentrations (MICs) were determined by the broth microdilution method in accordance with Clinical and Laboratories Institute (CLSI) guidelines. In brief, fresh overnight bacterial cultures were suspended in sterile saline, and adjusted to a 0.5 McFarland turbidity standard. Bacterial suspensions were then diluted in cation adjusted Mueller-Hinton Broth (MHB II; BBL) to yield a final inoculum of approximately 5×10^5 colony-forming units (CFU)/mL. […]

The mark [3] stands for this setting: Escherichia coli, 25922, E. coli strain 25922, read-out: Ec 25922 (MIC).

The structures appear in SMILES notation. ≈ marks a conversion by molar mass, not a printed value. Like-named read-outs stand apart in the source and are kept apart here.

One may read the MIC as the least concentration at which growth counts as inhibited. In the case of `NCCS(=O)(=O)Cc1cnn(C[C@@H]2[C@H](NC(=O)/C(=N\OC3(C(=O)O)CC3)c3csc(N)n3)C(=O)N2S(=O)(=O)O)n1` [Example 152, 1-(((Z)-(2-(((2R,3S)-2-((4-(((2-aminoethyl)sulfonyl)methyl)-2H-1,2,3-triazol-2-yl)methyl)-4-oxo-1-sulfoazetidin-3-yl)amino)-1-(2-aminothiazol-4-yl)-2-oxoethylidene)amino)oxy)cyclopropanecarboxylic acid], the MIC in assay [1] (setting [3]) and in assay [2] was 0.5 µg/mL (≈ 0.804 µM) in each case.
Regarding `CC(C)(O/N=C(\C(=O)N[C@@H]1C(=O)N(S(=O)(=O)O)[C@@H]1Cn1ncc(CNC(=N)N)n1)c1csc(N)n1)C(=O)O` [Example 53, 2-(((Z)-(1-(2-aminothiazol-4-yl)-2-(((2R,3S)-2-((4-(guanidinomethyl)-2H-1,2,3-triazol-2-yl)methyl)-4-oxo-1-sulfoazetidin-3-yl)amino)-2-oxoethylidene)amino)oxy)-2-methylpropanoic acid], the MIC in assay [1] (setting [3]) and in assay [2] was 1 µg/mL (≈ 1.74 µM) in each case.
On to `CC(C)(O/N=C(\C(=O)N[C@@H]1C(=O)N(S(=O)(=O)O)[C@@H]1Cc1cc(CN)on1)c1csc(N)n1)C(=O)O` [Example 82, 2-(((Z)-(2-(((2R,3S)-2-((5-(aminomethyl)isoxazol-3-yl)methyl)-4-oxo-1-sulfoazetidin-3-yl)amino)-1-(2-aminothiazol-4-yl)-2-oxoethylidene)amino)oxy)-2-methylpropanoic acid], for which the MIC in assay [1] (setting [3]) and in assay [2] was 0.5 µg/mL (≈ 0.941 µM) each time.
As to `CC(C)(O/N=C(\C(=O)N[C@@H]1C(=O)N(S(=O)(=O)O)[C@@H]1Cn1cc(CCN)nn1)c1csc(N)n1)C(=O)O` [Example 41, 2-(((Z)-(2-(((2R,3S)-2-((4-(2-aminoethyl)-1H-1,2,3-triazol-1-yl)methyl)-4-oxo-1-sulfoazetidin-3-yl)amino)-1-(2-aminothiazol-4-yl)-2-oxoethylidene)amino)oxy)-2-methylpropanoic acid], the MIC in assay [1] (setting [3]) is 1 µg/mL (≈ 1.83 µM); in assay [2] it was 2 µg/mL (≈ 3.67 µM).
With `Nc1nc(/C(=N/OC2(C(=O)O)CC2)C(=O)N[C@@H]2C(=O)N(S(=O)(=O)O)[C@@H]2Cn2ncc(CN[C@H]3CCNC3)n2)cs1` [Example 91, 1-(((Z)-(1-(2-aminothiazol-4-yl)-2-oxo-2-(((3S,4R)-2-oxo-4-((4-(((S)-pyrrolidin-3-ylamino)methyl)-2H-1,2,3-triazol-2-yl)methyl)-1-sulfoazetidin-3-yl)amino)ethylidene)amino)oxy)cyclopropanecarboxylic acid], the MIC in assay [1] (setting [3]) stood at 0.125 µg/mL (≈ 0.209 µM); in assay [2], 0.25 µg/mL (≈ 0.418 µM).
`CC(C)(O/N=C(\C(=O)N[C@@H]1C(=O)N(S(=O)(=O)O)[C@@H]1Cn1ccnn1)c1csc(N)n1)C(=O)O` [Example 50, 2-(((Z)-(2-(((2R,3S)-2-((1H-1,2,3-triazol-1-yl)methyl)-4-oxo-1-sulfoazetidin-3-yl)amino)-1-(2-aminothiazol-4-yl)-2-oxoethylidene)amino)oxy)-2-methylpropanoic acid]: the MIC in assay [1] (setting [3]) was determined as 2 µg/mL (≈ 3.98 µM); in assay [2], 2.8 µg/mL (≈ 5.57 µM).
The corresponding values for `Nc1nc(/C(=N/OC2(C(=O)O)CC2)C(=O)N[C@@H]2C(=O)N(S(=O)(=O)O)[C@@H]2Cn2ncc(CN3CC(N)C3)n2)cs1` [Example 106, 1-(((Z)-(2-(((2R,3S)-2-((4-((3-aminoazetidin-1-yl)methyl)-2H-1,2,3-triazol-2-yl)methyl)-4-oxo-1-sulfoazetidin-3-yl)amino)-1-(2-aminothiazol-4-yl)-2-oxoethylidene)amino)oxy)cyclopropanecarboxylic acid] are at most 0.06 µg/mL and at most 0.06 µg/mL.
In the case of `CN(C)Cc1cnn(C[C@@H]2[C@H](NC(=O)/C(=N\OC(C)(C)C(=O)O)c3csc(N)n3)C(=O)N2S(=O)(=O)O)n1` [Example 99, 2-(((Z)-(1-(2-aminothiazol-4-yl)-2-(((2R,3S)-2-((4-((dimethylamino)methyl)-2H-1,2,3-triazol-2-yl)methyl)-4-oxo-1-sulfoazetidin-3-yl)amino)-2-oxoethylidene)amino)oxy)-2-methylpropanoic acid], the MIC came to 2 µg/mL (≈ 3.57 µM) in assay [1] (setting [3]) and 4 µg/mL (≈ 7.15 µM) in assay [2].
For `CN(CCCN)Cc1cnn(C[C@@H]2[C@H](NC(=O)/C(=N\OC3(C(=O)O)CC3)c3csc(N)n3)C(=O)N2S(=O)(=O)O)n1` [Example 115, 1-(((Z)-(2-(((2R,3S)-2-((4-(((3-aminopropyl)(methyl)amino)methyl)-2H-1,2,3-triazol-2-yl)methyl)-4-oxo-1-sulfoazetidin-3-yl)amino)-1-(2-aminothiazol-4-yl)-2-oxoethylidene)amino)oxy)cyclopropanecarboxylic acid], the MIC in assay [1] (setting [3]) was 0.125 µg/mL (≈ 0.208 µM); in assay [2], 0.25 µg/mL (≈ 0.416 µM).
As for `N=C(NCCCN)NCc1cn(C[C@@H]2[C@H](NC(=O)/C(=N\OC3(C(=O)O)CC3)c3csc(N)n3)C(=O)N2S(=O)(=O)O)nn1` [Example 120, 1-(((Z)-(2-(((2R,3S)-2-((4-((3-(3-aminopropyl)guanidino)methyl)-1H-1,2,3-triazol-1-yl)methyl)-4-oxo-1-sulfoazetidin-3-yl)amino)-1-(2-aminothiazol-4-yl)-2-oxoethylidene)amino)oxy)cyclopropanecarboxylic acid], the MIC in assay [1] (setting [3]) was 0.25 µg/mL (≈ 0.398 µM); in assay [2], 0.5 µg/mL (≈ 0.795 µM).
For `CC(C)(O/N=C(\C(=O)N[C@@H]1C(=O)N(S(=O)(=O)O)[C@@H]1Cn1cncn1)c1nsc(N)n1)C(=O)O` [Example 16, 2-(((Z)-(2-(((2R,3S)-2-((1H-1,2,4-triazol-1-yl)methyl)-4-oxo-1-sulfoazetidin-3-yl)amino)-1-(5-amino-1,2,4-thiadiazol-3-yl)-2-oxoethylidene)amino)oxy)-2-methylpropanoic acid], the MIC in assay [1] (setting [3]) was found to be 4 µg/mL (≈ 7.94 µM); in assay [2] it was 2 µg/mL (≈ 3.97 µM).
Take `NCC1CN(C[C@@H]2[C@H](NC(=O)/C(=N\OC3(C(=O)O)CC3)c3csc(N)n3)C(=O)N2S(=O)(=O)O)C(=O)N1` (stereo partly drawn) [Example 122, 1-(((Z)-(2-(((2R,3S)-2-((4-(aminomethyl)-2-oxoimidazolidin-1-yl)methyl)-4-oxo-1-sulfoazetidin-3-yl)amino)-1-(2-aminothiazol-4-yl)-2-oxoethylidene)amino)oxy)cyclopropanecarboxylic acid]: the MIC in assay [1] (setting [3]) was at most 0.06 µg/mL; in assay [1] (Escherichia coli, 25922, read-out: Ec 25922 (MIC)), 0.125 µg/mL (≈ 0.229 µM).
`Nc1nc(/C(=N/OC2(C(=O)O)CC2)C(=O)N[C@@H]2C(=O)N(S(=O)(=O)O)[C@@H]2Cn2ncc(CNC3CNC3)n2)cs1` [Example 103, 1-(((Z)-(1-(2-aminothiazol-4-yl)-2-(((2R,3S)-2-((4-((azetidin-3-ylamino)methyl)-2H-1,2,3-triazol-2-yl)methyl)-4-oxo-1-sulfoazetidin-3-yl)amino)-2-oxoethylidene)amino)oxy)cyclopropanecarboxylic acid]: in assay [1] (setting [3]), the MIC was found to be 0.25 µg/mL (≈ 0.428 µM).

Source of the values: US10369138B2, “Monobactam organic compounds for the treatment of bacterial infections” (Novartis AG, priority 2014, dated 2019).
